Assay results from patent EP3730147A1, “PREPARATION WITH HYPOGLYCEMIC EFFECT” (Instytut Biotechnologii i Badan Medycznych "Biolamed" SP. Z …, priority 2019, dated 2020).
Marks after values point to notes of the source that are not given here.

Legend:
Wistar rats [1] = assay: Blood glucose after glucose load in rats with alloxan-induced diabetes; type: in vivo; details: 100 mg/kg; for Glucose concentration: glucose load 4 g/kg 4 hours after drug; for time after glucose administration at which glucose indicators normalized: alloxan diabetes, glucose load 4 g/kg
Protocol: The study was conducted on Wistar rats weighing 220-250 g. All animals were subjected to two weeks of observation prior to the experiment to exclude infection. Rats were housed in standard cages, 5 individuals in each. The animals stayed in a room with a temperature of 22±2°C, air humidity 60-70% and in natural lighting (12/12 in a day/night cycle). The animals had free access to water and standard laboratory feed ad libitum.
Diabetes was caused by a single intraperitoneal administration of alloxan at a dose of 170 mg/kg bw. The development of diabetes was observed on the basis of the main symptoms (polydipsia, polyphagia), glycosuria and hyperglycemia. Animals with high glucose levels of at least 14 mmol/L were selected for the experiment.
Animals were randomized into 6 groups of 8 individuals each. The first group, the control group, was formed from healthy animals without diabetes. The control group (healthy animals) received NaCl 1 ml/kg; Group 2. - diabetes mellitus (DM), received NaCl 1 ml/kg; Group 3. - DM + Betulin, at a dose of 100 mg/kg; Group 4. - DM + Lupeol, at a dose of 100 mg/kg; Group 5 - DM + Betulonic acid, at a dose of 100 mg/kg; Group 6 - DM + Betulinic acid, at a dose of 100 mg/kg; Group 7 - DM + Betulin-3,28-diacetate, at a dose of 100 mg/kg.
4 hours after drug administration, all animals intragastrically received a 40% glucose solution at a dose of 4 g/kg. The time of administration is determined in the available literature on its pharmacokinetics - peak plasma levels of lupane triterpenoids in rats are observed 3-4 hours after intragastric administration.
Peripheral blood glucose was determined using a Roche AccuCheck Active meter (USA) before and after glucose administration every 60 minutes for 5 hours. A drop of blood was taken from the tail tip incision.

[2] = biological target: T1, rat liver glucose-6-phosphate dehydrogenase (DG-6-P) (Rattus norvegicus, UniProt P05370); assay: Effect on DG-6-P activity in 5.6-fold purified rat liver enzyme; type: biochemical; details: for remaining activity at 5 µM / remaining activity at 25 µM: read-out: % of control (DG-6-P activity)
T1 construct: an additional enzyme purification procedure was performed; from tissue; host or cells: rat liver (5.6-fold purified enzyme preparation)
Text: (§1) Rat liver glycogen phosphorylase, rat liver and skeletal muscle hexokinase, rat liver glucose-6-phosphate dehydrogenase (DG-6-P), rat liver and skeletal muscle phosphofructokinase were selected as potential targets for in vitro testing of the hypoglycemic activity of lupane triterpenoids.
Surprising results were obtained by examining the effect of lupane triterpenoids on glucose-6-phosphate activity. […] In both cases, the observed effects were dose-dependent. […] Table 1. Effect of lupane triterpenoids on DG-6-P activity in 5.6-fold purified rat liver

Wistar rats [3] = assay: Pancreatic islet morphometry in rats with alloxan-induced diabetes, 30 days treatment; type: in vivo
Protocol: The possible cytoprotective effect of lupane triterpenoids on the functional state of the pancreas in alloxan-induced diabetes in rats was evaluated. Alloxane was used to induce diabetes, which causes damage to the necrotic islet type pancreatic apparatus due to selective accumulation in β-cells and induction of massive free radical generation. The study was conducted on Wistar rats weighing 220-250 g. All animals were subjected to two weeks of observation prior to the experiment to exclude infection. Rats were housed in standard cages, 5 individuals in each. […] The animals had free access to water and standard laboratory feed ad libitum. Diabetes was caused by a single intraperitoneal administration of alloxan at a dose of 170 mg/kg bw. The development of diabetes was observed on the basis of the main symptoms (polydipsia, polyphagia), glycosuria and hyperglycemia. Animals with high glucose levels of at least 14 mmol/L were selected for the experiment. Animals were randomized into 8 groups of 8 individuals each. The first group, the control group, was formed from healthy animals without diabetes. The control group (healthy animals) received NaCl 1 ml/kg; Group 2 - DM + Lupeol, at a dose of 100 mg/kg; Group 3 - DM + Betulonic acid, at a dose of 100 mg/kg; Group 4 - DM + 3,28-betulin diacetate, at a dose of 100 mg/kg; Group 5 - DM + Betulinic acid, at a dose of 50 mg/kg; Group 6 - DM + Betulinic acid, at a dose of 100 mg/kg; Group 7 - DM + Betulin, at a dose of 50 mg/kg; Group 8 - DM + Betulin, at a dose of 100 mg/kg.

[4] = biological target: T2, Rat liver glycogen phosphorylase (Rattus norvegicus, UniProt P09811); assay: Effect on glycogen phosphorylase activity in rat liver homogenates and post-mitochondrial fraction; type: biochemical
T2 construct: from tissue; host or cells: rat liver homogenates and post-mitochondrial fraction
T2 sequence (P09811 1-850): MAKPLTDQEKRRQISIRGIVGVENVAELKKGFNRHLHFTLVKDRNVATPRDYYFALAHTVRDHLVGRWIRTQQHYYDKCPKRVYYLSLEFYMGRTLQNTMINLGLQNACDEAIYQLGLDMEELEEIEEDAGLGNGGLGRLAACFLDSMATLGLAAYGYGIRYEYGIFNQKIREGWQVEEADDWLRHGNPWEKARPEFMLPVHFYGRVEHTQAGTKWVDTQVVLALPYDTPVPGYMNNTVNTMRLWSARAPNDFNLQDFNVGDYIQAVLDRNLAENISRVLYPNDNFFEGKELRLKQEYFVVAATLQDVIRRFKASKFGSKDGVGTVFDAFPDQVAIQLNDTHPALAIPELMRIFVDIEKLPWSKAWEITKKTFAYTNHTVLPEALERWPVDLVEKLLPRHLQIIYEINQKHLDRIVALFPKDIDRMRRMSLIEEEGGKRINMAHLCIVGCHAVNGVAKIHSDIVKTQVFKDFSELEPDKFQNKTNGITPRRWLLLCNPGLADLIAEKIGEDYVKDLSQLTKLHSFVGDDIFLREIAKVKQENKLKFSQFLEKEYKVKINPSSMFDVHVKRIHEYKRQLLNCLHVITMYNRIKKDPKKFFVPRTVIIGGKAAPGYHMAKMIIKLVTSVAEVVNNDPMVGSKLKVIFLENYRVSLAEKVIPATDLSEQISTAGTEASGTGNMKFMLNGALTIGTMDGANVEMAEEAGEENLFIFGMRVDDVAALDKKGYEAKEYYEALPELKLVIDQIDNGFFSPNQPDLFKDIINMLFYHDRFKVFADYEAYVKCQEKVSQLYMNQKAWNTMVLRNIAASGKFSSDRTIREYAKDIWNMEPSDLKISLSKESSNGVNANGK
Text: as §1

pancreatic islet β-cells = assay: Insulin secretion by isolated Langerhans islets (enzyme immunoassay); type: cell-based; details: 10 µM, 30 minutes incubation, compared to the control group
Protocol: To study the effect of betulin and betulinic acid on insulin secretion by pancreatic islet β-cells, their solutions in DMSO were incubated with isolated Langerhans islands in concentrations of 10 µM for 30 minutes, after which the insulin content in the incubation medium was determined by enzyme immunoassay.
The strongest reaction was observed after 30 minutes of incubation in the presence of 10 µM lupane triterpenoids (Figure 1).

Wistar rats [5] = assay: Blood glucose in rats with glucose-induced hyperglycemia (OGTT-2 / OGTT-4); type: in vivo; details: compared to control animals
Protocol: To study the effect of betulin, 3,28-diacetate betulin, betulinic acid and lupeol on blood glucose levels in rats with induced hyperglycemia, the animals received 2 hours prior to glucose administration, test substances at doses of 100 or 1000 mg/kg. Hyperglycaemia was caused by oral administration of a 40% glucose solution at a dose of 2 g/kg (OGTT-2) or 4 g/kg (OGTT-4). The study was conducted on Wistar rats weighing 220-250 g. All animals were subjected to two weeks of observation prior to the experiment to exclude infection. Rats were housed in standard cages, 5 individuals in each. […] The animals had free access to water and standard laboratory feed ad libitum. Animals were randomized into 5 groups, 8 individuals each. Hyperglycaemia was caused by administration of a 40% glucose solution at doses of 2 or 4 g/kg. […] Blood glucose was determined with a Roche AccuCheck Active glucometer (USA) before and after glucose administration every 30 minutes for 2 hours and then every 60 minutes for 6 hours.

[6] = 50 mg/kg/day for 30 days, compared to the untreated group

T1 sequence (P05370 whole entry): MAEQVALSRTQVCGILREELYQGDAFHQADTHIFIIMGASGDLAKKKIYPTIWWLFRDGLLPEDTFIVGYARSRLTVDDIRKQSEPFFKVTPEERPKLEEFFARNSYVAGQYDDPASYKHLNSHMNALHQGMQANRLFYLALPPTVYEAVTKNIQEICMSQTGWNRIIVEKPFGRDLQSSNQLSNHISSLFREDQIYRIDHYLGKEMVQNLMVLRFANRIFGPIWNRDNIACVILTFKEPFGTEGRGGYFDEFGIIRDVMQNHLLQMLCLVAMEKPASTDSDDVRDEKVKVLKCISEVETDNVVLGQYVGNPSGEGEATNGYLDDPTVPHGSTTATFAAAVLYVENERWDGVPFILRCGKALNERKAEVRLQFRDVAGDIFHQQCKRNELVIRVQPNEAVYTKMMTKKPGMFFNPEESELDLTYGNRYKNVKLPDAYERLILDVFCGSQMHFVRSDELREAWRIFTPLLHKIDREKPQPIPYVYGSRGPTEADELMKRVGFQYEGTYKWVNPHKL

| Structure (SMILES) | Glucose concentration (Wistar rats [1]; blood collection time 5 hours) | E (DG-6-P activity) ([2]; 5 µM) | remaining activity at 5 µM ([2]; 5 µM) [%] | E (DG-6-P activity) ([2]; 25 µM) | remaining activity at 25 µM ([2]; 25 µM) [%] | time after glucose administration at which glucose indicators normalized (Wistar rats [1]) [h] | Glucose concentration (Wistar rats [1]; blood collection time 0 hours) | Glucose concentration (Wistar rats [1]; blood collection time 2 hours) | area of Langerhans islets and their number (Wistar rats [3]; 50 mg/kg/day for 30 days) | increase of the number of β-cells in the islets (Wistar rats [3]; [6]) | islet diameter increase (Wistar rats [3]; [6]) | morphological picture of the pancreas (Wistar rats [3]; 100 mg/kg/day for 30 days, compared to the untreated group) | glycogen phosphorylase activity [4] | insulin secretion by pancreatic islet β-cells (pancreatic islet β-cells) | reduction in blood glucose levels at the peak of hyperglycemia (Wistar rats [5]) |
| --- | --- | --- | --- | --- | --- | --- | --- | --- | --- | --- | --- | --- | --- | --- | --- |
| C=C(C)[C@@H]1CC[C@]2(COC(C)=O)CC[C@]3(C)[C@H](CC[C@@H]4[C@@]5(C)CC[C@H](OC(C)=O)C(C)(C)[C@@H]5CC[C@]43C)[C@@H]12 [3,28-betulin diacetate] | 8,51±0,52 mmol/l | 0,158±0,002 | 75 | 0,111±0,008 | 52.8 |  |  |  |  |  |  |  |  |  |  |
| CC1(C)CC[C@]23CC[C@]4(C)[C@H](CC[C@@H]5[C@@]6(C)CC[C@H](O)C(C)(C)[C@@H]6CC[C@]54C)[C@H]2[C@H]1OC3 [Allobetulin] |  | 0,151±0,004 | 72 | 0,103±0,002 | 49 |  |  |  |  |  |  |  |  |  |  |
| C=C(C)[C@@H]1CC[C@]2(CO)CC[C@]3(C)[C@H](CC[C@@H]4[C@@]5(C)CC[C@H](O)C(C)(C)[C@@H]5CC[C@]43C)[C@@H]12 [Betulin] | 6,01±0,78 mmol/l | 0,149±0,004 | 71 | 0,100±0,002 | 47.6 | 4 | 10,82±0,31 mmol/l | 22,61±0,4 mmol/l | tendency to increase | 25-35% | 10-15% | significant improvement | greatest inhibitory effect | statistically significantly increase | 30-35% |
| C=C(C)[C@@H]1CC[C@]2(C(=O)O)CC[C@]3(C)[C@H](CC[C@@H]4[C@@]5(C)CC[C@H](O)C(C)(C)[C@@H]5CC[C@]43C)[C@@H]12 [Betulinic acid] | 7,88±1,30* * mmol/l |  | 68.8 |  | 44.2 | 4 | 10,12±0,70 mmol/l | 25,64±1,50 mmol/l |  | 25-35% | 10-15% |  |  |  | 30-35% |
| C=C(C)[C@@H]1CC[C@]2(C(=O)O)CC[C@]3(C)[C@H](CC[C@@H]4[C@@]5(C)CCC(=O)C(C)(C)[C@@H]5CC[C@]43C)[C@@H]12 [Betulonic acid] | 6,52±0,7 mmol/l | 0,148±0,003 | 70.3 | 0,109±0,007 | 51.9 |  | 10,32±0,77 mmol/l | 18,5±0,32 mmol/l |  |  |  |  | greatest inhibitory effect |  |  |
| C=C(C)[C@@H]1CC[C@]2(C)CC[C@]3(C)[C@H](CC[C@@H]4[C@@]5(C)CC[C@H](O)C(C)(C)[C@@H]5CC[C@]43C)[C@@H]12 [Lupeol] | 9,38±0,75 mmol/l | 0,143±0,005 | 68 | 0,113±0,009 | 53.6 |  |  |  |  |  |  |  |  |  |  |
